Assay results taken from US20100227876A1 (priority 2009, published 2010).

Columns and labels:
[1] = test system: human; settings: cited from earlier work
[2] = test system: rats; settings: rat, in vivo; cited from earlier work
[3] = test system: male Sprague-Dawley rats; experiment: animal or person; type: in vivo, rat; settings: sc

For Oc1ccc2c(c1)[C@@]13CCCC[C@@]1(O)[C@@H](C2)N(CC1CCC1)CC3 [butorphanol], the effective human dose [1] is listed as 2 mg.

For Oc1ccc2c3c1O[C@H]1c4[nH]c5c(c4C[C@@]4(O)[C@@H](C2)N(CC2CC2)CC[C@]314)C[C@@]1(O)[C@H]2Cc3ccc(O)c4c3[C@@]1(CCN2CC1CC1)[C@H]5O4 [n-BNI, nor-binaltorphimine], the “M.P.E. (maximal percent effect, antinociception)” value [2] is listed as 1.0%.

For CN1CC[C@]23c4c5ccc(O)c4O[C@H]2C(=O)CC[C@@]3(O)[C@H]1C5 [oxymorphone], the ED50 ([3]; Rattus norvegicus, read-out: ED50 (M.P.E.=50%)) was 0.078 mg/kg and the “peak effect, time post injection” value ([3]; rat, in vivo) was 30 min.

For COC(=O)/C=C/C(=O)N[C@@H]1CC[C@@]2(O)[C@H]3Cc4ccc(O)c5c4[C@@]2(CCN3CC2CC2)[C@H]1O5 [β-FNA, beta-funaltrexamine], the “M.P.E. (maximal percent effect, antinociception)” value [2] is given as 1.0%.
